The nature of this experiment: Inhibition of PLK1 in human MIAPaCa2 cells after 48 hrs by MTT assay.

In BindingDB's records for doi:10.1016/j.bmcl.2012.10.009 (Abbott Laboratories, 2012) one finds EC50 data, which are given here for 13 compounds.

Molecules are shown by their SMILES.

What is called EC50 is the concentration at which the effect is half-maximal. A high value points to a need for much substance. The compound `CC(C)(C)Nc1c(Nc2ccnc(Nc3ccc(-c4ccncc4)cc3)n2)c(=O)c1=O` returned an EC50 of 1.05 µM.

In turn, `CC(C)(C)Nc1c(Nc2ccnc(Nc3ccc4c(c3)Cc3ccccc3-4)n2)c(=O)c1=O` registered a half-maximal effective concentration (EC50) above 30 µM.

Regarding `CC(C)(C)Nc1c(Nc2ccnc(Nc3ccc(-c4ccccc4)cc3)n2)c(=O)c1=O`, the concentration giving a half-maximal response (EC50) was above 30 µM.

In turn, `CC(C)(C)Nc1c(Nc2ccnc(Nc3ccc(N4CCOCC4)cc3)n2)c(=O)c1=O` had a concentration giving a half-maximal response (EC50) of 8.89 µM.

Regarding `CC(C)(C)Nc1c(Nc2ccnc(Nc3ccc(-c4csnn4)cc3)n2)c(=O)c1=O`, the EC50 worked out at 8.32 µM.

The compound `CC(C)(C)Nc1c(Nc2ccnc(Nc3ccc(-c4ccccn4)cc3)n2)c(=O)c1=O` gave an EC50 of 8.28 µM.

In turn, `CC(C)(C)Nc1c(Nc2ccnc(Nc3ccc4c(c3)[nH]c3ccccc34)n2)c(=O)c1=O` displayed an EC50 of 5 µM.

`CC(C)(C)Nc1c(Nc2ccnc(Nc3ccc4c(c3)CCO4)n2)c(=O)c1=O` returned an EC50 of 2.86 µM.

As for `CC(C)(C)Nc1c(Nc2ccnc(Nc3ccc4ncsc4c3)n2)c(=O)c1=O`, a half-maximal response (EC50) required 2.86 µM. This lies in the single-digit micromolar range.

The compound `CC(C)(C)Nc1c(Nc2ccnc(Nc3ccc(-c4cccnc4)cc3)n2)c(=O)c1=O` had an EC50 of 2.55 µM.

`CC(C)(C)Nc1c(Nc2ccnc(Nc3ccc(-c4cn[nH]c4)cc3)n2)c(=O)c1=O` came in with a concentration for a half-maximal effect (EC50) of 1.61 µM.

`CC(=O)N1CCc2cc(Nc3nccc(Nc4c(NC(C)(C)C)c(=O)c4=O)n3)ccc21` displayed an EC50 of 1.47 µM.

Turning to `CC(C)(C)Nc1c(Nc2ccnc(Nc3ccc4[nH]ncc4c3)n2)c(=O)c1=O`, a half-maximal effect (EC50) was put at 1.47 µM.
